Data on 3 molecules can be found in patent publication US20140294849A1, “COMPOSITIONS AND USES” (GLAXOSMITHKLINE BIOLOGICALS SA, priority 2011, published 2014).

No end group written: not given here.

The test system of assay [1] is BV2 microglia cells. Kind of assay: In vitro phagocytosis of Aβ1-42 in BV2 cells, Western blot. It counts as cell-based, mouse. The following applies: Example 16; 5 μg/mL cytochalasin D. The procedure:
For total Aβ detection, 10-30 μg of cell extracts were separated on a precast 10-20% SDS polyacrylamide Tris-Tricine gel (Bio-Rad, Canada). Separated proteins were then transferred onto polyvinylidene fluoride (PVDF) membranes (PerkinElmer, Canada). Membrane were incubated in DPBS (Gibco, USA) at 90° C. for 10 min. Membrane were then incubated for 1 hour in blocking solution, which consist in TBS-T (50 mM Tris-HCl pH 8.0; 150 mM NaCl; 0.05% Tween 20) supplemented with 1% BSA (Sigma, Canada) and 5% non-fat dry milk, and probed for 16 hours at 4° C. with a mouse anti-amyloid beta protein monoclonal antibody clone 6E10 (Covance, USA) diluted to 1:1000 in TBS-T supplemented with 5% BSA and 0.02% sodium azide. Membranes were washed once for 15 min and three times for 5 min in TBS-T at room temperature. […] Films were digitalized using a HP Scanjet 4370 (HP) and signal intensity was measured using ImageJ (version 1.44p, NIH).
Aβ specific antibodies stimulate the uptake of soluble Aβ1-42 toxic peptides in an actin polymerization-dependent mechanism. […] Cells were incubated for the indicated period of time, resuspended by trypsinization, collected, solubilised in lysis buffer and further analyzed by immunoblotting. […]

Assay [2] relates to Aβ42. Kind of assay: Anti Aβ42 specific immunogenicity in TASTPM mice. Type of assay: in vivo. The conditions noted are these: Example 24; 12 injections of 10 ug, intramuscular. The method, then:
Whole blood is collected from mice and centrifuged on a vacutainer blood collection tube containing gel for serum separation. Serum samples are stored at −80° C. Streptavidin-coated plates (Greiner Bio-One, Germany) are first coated with beta-amyloid (1-42)-Lys(Biotin)-NH2 peptide (Anaspec, Inc.) at 0.5 μg/mL, using 50 mM sodium carbonate buffer, overnight at 4° C. Plates are then washed using a 4 times using PBS/0.05% Tween 20. Super Block (ScyTek laboratories) is added to the plates and incubated at 37° C. for at least one hour. Serum samples and standard (anti Aβ42 antibody (6E10 antibody, Covance, Inc.) are serially diluted in the plates and incubated at 37° C. for 2 hours. After a wash step, diluted peroxidase AffiniPure goat anti-mouse IgG, Fcγ fragment specific (Jackson ImmunoResearch Laboratories Inc.) is added for 1 hour at 37° C. A last wash is performed before adding TMB substrate reagent (BD OptEIA™, BD Biosciences) for 30 min at RT. Immediately, plates are stopped using 2N sulfuric acid, and then read at 450 nm using SpectraMax microplate reader (Molecular Devices, Inc.).
High and specific anti Aβ42 specific immunogenicity is promoted by a TLR2 containing adjuvant fused to the first six amino acid of Aβ in the amyloid deposition mouse model (TASTPM) following 12 injections of 10 ug of the Pam3Cys—SQ EPAAPAAEAT PAAEAP DAEFRH (SEQ ID NO:9) using the intramuscular route.

Assay [3] relates to working memory. Kind of assay: T-water maze in TASTPM mice. Type of assay: in vivo. The conditions noted are these: Example 25; 12 weekly i.m. injections; vs PBS. The method, then:
Mice were tested during the “light on” phase of the day. Behavioral experimenter was blinded to the genetic and treatment status of animals. To assess hippocampal-dependent spatial learning and memory, mice were trained in the T-water maze task. In this paradigm, we evaluate the mouse's ability to remember the spatial location of submerged platform. The T-maze apparatus (length of stem, 64 cm; length of arms, 30 cm; width, 12 cm; height of walls, 16 cm) was made of clear fiberglass and filled with water (23±1° C.) at a height of 12 cm. A platform (11×11 cm) was placed at the end of the target arm and was submerged 1 cm below the surface. The acquisition phase allows to evaluate animals for left-right spatial learning. During the first two trials, platforms were placed on each arms of the maze to test the spontaneous turning preference of the mouse. After these two trials, the least chosen arm was reinforced by the escape platform. […] The number of trials to reach the criterion (five of five correct choices made on consecutive trials) was measured as well as the latency to find the escape platform.
To determine whether a TLR2 agonist will improve the cognitive impairment in TASTPM mice, the Pam3CysLip adjuvant fused to the Aβ1-6 peptide was injected 12 times at weekly basis using the intramuscular route and the memory was assessed using the T-water maze test. […]

Assay [4] deals with TASTPM mice. The experiment in a line: Survival rate of TASTPM mouse model. The conditions noted are these: Example 26; weekly injections; followed for 112 days. It counts as in vivo. The source says: The usage of the TLR2 agonist, i.e. Pam3CysLip Aβ1-6 peptide, improves the survival rate of TASTPM mouse model. 23 out of 25 mice survived after weekly injections of Pam3CysLip Aβ1-6 peptide compared to PBS injected animals in which only 13 out 25 TASTPM mice survived (followed for 112 days).

Assay [5] concerns AD-like neuropathologies. The following applies: Schenk D. et al, 1999; cited from earlier work.

As for `C=C1[C@@H](C)[C@H]2[C@H](Cc3ccccc3)NC(=O)[C@]23[C@H](OC(C)=O)/C=C/[C@@](C)(O)C(=O)[C@@H](C)C/C=C/[C@H]3[C@@H]1O` [cytochalasin D], the “effect on 2E7-increased cellular uptake of Aβ1-42” value in assay [1] is on record as “inhibited”. In the case of “Pam3Cys—SQ EPAAPAAEAT PAAEAPDAEFRH (Pam3Cys-SQEPAAPAAEATPAAEAPDAEFRH) [Pam3CysLip Aβ1-6]”, in assay [2], the Aβ42 specific immunogenicity entry is given as “High Aβ42 specific Immunogenicity”. Further, the “right-left discrimination tests, T-water maze” value in assay [3] is recorded as “trend of improvement”. In addition, the mice survived in assay [4] is recorded as 23 out of 25. With “synthetic human Aβ1-42: synthetic human Aβ1-42 used to immunize PDAPP mice”, the AD-like neuropathologies result in assay [5] is “reduce the extent and progression of AD-like neuropathologies”.
